Values quoted from earlier work in paper PMC6669827 (Toxins, 2019).

Test system: rat α9α10 nAChR
Conditions: cited from earlier work

For Vc1.1, the “affinity for rat versus human α9/α10 (in words)” value is listed as “the affinity is higher for the rat subtypes”.
